For data set [1], the system named is HLA-B*1301 allele. The following applies: human, in vivo. How it is done:
To further verify the correlation of HLA-B*1301 allele, the 454 sequencing platform (Genome Sequencer FLX system developed by Roche 454 Life Sciences) was employed to conduct HLA sorting on another 37 DHS patients in the case samples and another 201 non-DHS patients in the clinical control samples (randomizedly selected from a total of 1089 validation controls). Wherein, PCR amplification was conducted on genomic DNA isolated from the peripheral blood of the samples for the HLA-B*1301 allele using primer pair 1 and primer pair 2, respectively. The primer pair 1 consists of the single-stranded DNA as set forth in SEQ ID No.1 and SEQ ID No.2; and the primer pair 2 consists of the single-stranded DNA as set forth in SEQ ID No.3 and SEQ ID No.4.

Data set [2] deals with HLA-B*1301 allele. The note with it: human, in vivo. An excerpt:
The 454 sequencing platform (Genome Sequencer FLX system developed by Roche 454 Life Sciences) was employed to conduct HLA sorting on 76 DHS patients in the case samples and 1034 non-DHS patients in the clinical control samples, and the sorting results are shown in Table 1.
The HLA-B*1301 heterozygous carriers were at a risk of DHS of ORhet=61×886/10×144=37.53 (confidence level, 0.95; confidence interval (18.80, 74.94)); the HLA-B*1301 homozygous carriers were at a risk of DHS of ORhom=5×886/10×4=110.75 (confidence level, 0.95; confidence interval (25.85, 474.54)).
A recent review regarding the Asian population deduced that the prevalence rate of DHS was 1.4% (Lorenz, Wozel et al. 2012). Based on this prevalence rate, the positive predictive value was 7.9%, the negative predictive value was 99.8%, the positive likelihood ratio was 6.07, and the negative likelihood ratio was 0.1536, upon calculation. According to the positive likelihood ratio of 6.07, the risk of DHS in individuals with the HLA-B*1301 will be raised to 7.9%; and according to the negative likelihood ratio of 0.1536, the incidence of DHS in individuals […] will be decreased from 1.4% to 0.2%.
The source holds these as a separate data set.

For data set [3] the following is noted: both, human, in vivo. An excerpt:
76 Chinese DHS patients (39 for the discovery-phase study, and 37 for the validation-phase study) were included in the study. […] The diagnosis of DHS was based on the medical history, clinical manifestations and laboratory examinations of the patients.

In data set [4] the test system is HLA-B*1301 allele. The note with it: both, human, in vivo.
Text: The samples were peripheral blood taken from human, including case samples, clinical control samples and healthy control samples.
76 Chinese DHS patients (39 for the discovery-phase study, and 37 for the validation-phase study) were included in the study. […] The male-to-female ratio in the patients, aged 38 years old in average, was 1.6:1. […] The diagnosis of DHS was based on the medical history, clinical manifestations and laboratory examinations of the patients.
The clinical control samples of the study included 1034 non-DHS patients (833 for the discovery phase, and 201 for the validation phase).
Genotyping was performed on 39 DHS patients in the case samples and 833 non-DHS patients in the clinical control samples using Illumina-660 chip (Illumina Human 660W-Quad beadchip). A total of 430,276 SNPs from the 39 DHS patients and 833 non-DHS patients were used in data analysis in the discovery phase of Genome-Wide Scan. […]

Read-outs that look alike come from different tables or passages of the source.

Consider `Nc1ccc(S(=O)(=O)c2ccc(N)cc2)cc1` [DDS, 4,4′-diamino diphenyl sulfone], for which the “OR of DHS for HLA-B*1301” value in data set [1] is 23.54. In data set [2], the “HLA-B*1301 allele carried by DHS patients” value is recorded as 86.8%, the “HLA-B*1301 allele carried by non-DHS patients” value was found to be 14.3% and the “risk of DHS in individuals with the HLA-B*1301” value was found to be 7.9%. Also, in data set [3], the “patients abnormally increased in the level of serum bilirubin” value came out at 35 patients, the “patients decreased in the level of hemoglobin” value was 37 patients, the “patients significantly increased in the level of alanine transaminase” value worked out at 58 patients and the “patients significantly increased in the level of aspartate aminotransferase” value came out at 49 patients. Besides, in data set [3], the “skin lesion: exfoliative dermatitis” value is reported as 38.5%, the “skin lesion: maculopapule” value is recorded as 57.7%, the “skin lesion: scarlatiniform erythema” value worked out at 7.7% and the “system involvement: abnormal liver function” value turned out to be 74.4%. In data set [3], the “system involvement: fever” value is 83.1% and the “system involvement: swollen lymph glands” value is given as 34.6%. For the same compound, the “skin lesion: oral erosion” value in data set [3] (po) was found to be 1.3%. In data set [4], the “OR of DHS for HLA-B*1301” value is 21.67.

Source of the values: US9567636B2, “Use of HLA-B*1301 allele” (Shandong Provincial Institute of Dermatology and Venereology, priority 2012, dated 2017).
